Source: US11254690B2, “PTEFb inhibiting macrocyclic compounds” (BAYER AKTIENGESELLSCHAFT, priority 2017, dated 2022)
Where two headings read alike, the source gives them in different places.

Key:
A2780 cells = experiment: Proliferation assay, A2780; type: cell-based, human; details: 72-hour exposure, Cell Titre-Glo, read-out: Inhibition of A2780 cell proliferation IC50
Description: Cultivated tumour cells (HeLa, human cervical tumour cells, ATCC CCL-2; NCI-H460, human non-small cell lung carcinoma cells, ATCC HTB-177; DU 145, hormone-independent human prostate carcinoma cells, ATCC HTB-81; HeLa-MaTu-ADR, multidrug-resistant human cervical carcinoma cells, EPO-GmbH Berlin; Caco-2, human colorectal carcinoma cells, ATCC HTB-37; B16F10, mouse melanoma cells, ATCC CRL-6475) were plated at a density of 5,000 cells/well (DU145, HeLa-MaTu-ADR), 3,000 cells/well (NCI-H460, HeLa), 1,500 cells/well (Caco-2), or 1,000 cells/well (B16F10) in a 96-well multititer plate in 200 μL of their respective growth medium supplemented 10% fetal calf serum. After 24 hours, the cells of one plate (zero-point plate) were stained with crystal violet (see below), while the medium of the other plates was supplemented with the test substances in various concentrations (0 μM, as well as in the range of 0.0001-10 μM; the final concentration of the solvent dimethyl sulfoxide was adjusted to 0.1%) using a Hewlett-Packard HP D300 Digital Dispenser. The cells were incubated for 4 days in the presence of test substances. Cell proliferation was determined by staining the cells with crystal violet: the cells were fixed by adding 20 μl/measuring point of an 11% glutaric aldehyde solution for 15 minutes at room temperature. After three washing cycles of the fixed cells with water, the plates were dried at room temperature. The cells were stained by adding 100 μl/measuring point of a 0.1% crystal violet solution (pH 3.0). After three washing cycles of the stained cells with water, the plates were dried at room temperature. The dye was dissolved by adding 100 μl/measuring point of a 10% acetic acid solution. The extinction was determined by photometry at a wavelength of 595 nm. The change of cell number, in percent, was calculated by normalization of the measured values to the extinction values of the zero-point plate (=0%) and the extinction of the untreated ([…]) cells (=100%). The IC50 values (inhibitory concentration at 50% of maximal effect) were determined by means of a 4 parameter fit. A2780 human ovarian carcinoma cells (ECACC #93112519) and non-adherent MOLM-13 human acute myeloid leukemia cells (DSMZ ACC 554) were seeded at a density of 3,000 cell/well (A2780) or 5,000 cells/well (MOLM-13) in a 96-well multititer plate in 150 μL of growth medium supplemented 10% fetal calf serum. After 24 hours, cell viability of one plate (zero-point plate) was determined with the Cell Titre-Glo Luminescent Cell Viability Assay (Promega), while the medium of the other plates was supplemented with the test substances in various concentrations (0 μM, as well as in the range of 0.0001-10 μM; the final concentration of the solvent dimethyl sulfoxide was adjusted to 0.1%) using a Hewlett-Packard HP D300 Digital Dispenser. Cell viability was assessed after 72-hour exposure with the Cell Titre-Glo Luminescent Cell Viability Assay (Promega). IC50 values (inhibitory concentration at 50% of maximal effect) were determined by means of a 4 parameter fit on measurement data which were normalized to vehicle (DMSO) treated cells (=100%) and measurement readings taken immediately before compound exposure (=0%).

CDK9/CycT1 = target: T1, CDK9/CycT1 (Homo sapiens, UniProt P50750); experiment: CDK9/CycT1 high ATP kinase assay (TR-FRET, 2 mM ATP); type: biochemical; details: for IC50: 2 mM ATP, Method 1b, lower limit for IC50s about 1-2 nM; for Selectivity high ATP CDK9 over high ATP CDK2: IC50 (high ATP CDK2)/IC50 (high ATP CDK9): ratio from Methods 1b and 2b, minimal values for IC50s near the assay limit
T1 construct: Recombinant full-length His-tagged human CDK9 and CycT1; His; purchased Life Technologies PV4131; host or cells: insect cells
In short: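 Full-length His-tagged human CDK9/CycT1 from insect cells (about 0.5 μg/ml) was preincubated with compound for 15 min at 22° C in 50 mM Tris/HCl pH 8.0, 10 mM MgCl2, 1.0 mM DTT. Phosphorylation was detected by TR-FRET with anti-RB(pSer807/pSer811) antibody, as the 665/622 nm ratio normalised to no-inhibitor and no-enzyme controls.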

T1 sequence (P50750 whole entry): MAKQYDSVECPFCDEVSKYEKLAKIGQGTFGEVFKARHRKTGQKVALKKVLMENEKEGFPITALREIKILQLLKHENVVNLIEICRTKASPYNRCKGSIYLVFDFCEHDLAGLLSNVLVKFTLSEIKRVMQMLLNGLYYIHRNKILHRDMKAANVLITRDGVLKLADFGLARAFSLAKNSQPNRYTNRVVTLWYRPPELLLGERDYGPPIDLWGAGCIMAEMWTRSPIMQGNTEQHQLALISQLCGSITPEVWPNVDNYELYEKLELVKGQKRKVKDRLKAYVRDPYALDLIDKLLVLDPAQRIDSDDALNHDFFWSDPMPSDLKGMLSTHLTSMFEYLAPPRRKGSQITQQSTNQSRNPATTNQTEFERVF
T1 sequence (O60563 whole entry partner): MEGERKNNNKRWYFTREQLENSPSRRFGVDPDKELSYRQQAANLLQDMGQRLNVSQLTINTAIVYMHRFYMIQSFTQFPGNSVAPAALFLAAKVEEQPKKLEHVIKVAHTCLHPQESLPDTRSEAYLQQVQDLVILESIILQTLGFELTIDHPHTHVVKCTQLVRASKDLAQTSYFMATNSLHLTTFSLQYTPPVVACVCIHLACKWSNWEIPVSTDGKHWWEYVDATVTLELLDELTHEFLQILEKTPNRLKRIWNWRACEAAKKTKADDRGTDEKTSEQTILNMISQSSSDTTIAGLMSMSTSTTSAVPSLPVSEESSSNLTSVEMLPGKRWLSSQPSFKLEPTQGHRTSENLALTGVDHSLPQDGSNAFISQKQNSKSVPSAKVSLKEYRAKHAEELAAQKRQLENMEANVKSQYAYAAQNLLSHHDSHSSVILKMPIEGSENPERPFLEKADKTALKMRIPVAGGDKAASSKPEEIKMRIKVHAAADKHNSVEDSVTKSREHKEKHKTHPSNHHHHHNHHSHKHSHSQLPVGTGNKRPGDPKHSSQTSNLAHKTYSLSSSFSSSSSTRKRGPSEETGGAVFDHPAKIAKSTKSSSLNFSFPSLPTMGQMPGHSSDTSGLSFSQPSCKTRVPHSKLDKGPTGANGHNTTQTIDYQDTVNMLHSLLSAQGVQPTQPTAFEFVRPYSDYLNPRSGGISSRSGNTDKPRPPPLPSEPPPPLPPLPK

IC50 (A2780 cells; Homo sapiens, A2780, 72 h) [µM] | IC50 (CDK9/CycT1) [µM] | Selectivity high ATP CDK9 over high ATP CDK2: IC50 (high ATP CDK2)/IC50 (high ATP CDK9) (CDK9/CycT1) | IC50 (A2780 cells) [µM] | SMILES
0.009 | 0.007 | 105 | – | CS(=N)(=O)Cc1cc2nc(c1)OCCCCOc1cc(ccc1F)-c1cc(ncc1F)N2 (racemic) [Example 2, (rac)-3,20-difluoro-10-[(S-methylsulfonimidoyl)methyl]-13,18-dioxa-5,7,24-triazatetracyclo[17.3.1.1^2,6.1^8,12]pentacosa-1(23),2(25),3,5,8(24),9,11,19,21-nonaene]
0.056 | 0.005 | >4000 | – | CC(C)(C)OC(=O)N=S(C)(=O)Cc1cc2cc(c1)OCCCCOc1cc(ccc1F)-c1nc(ncc1F)N2 (racemic) [Example 3, (rac)-tert-butyl [{[3,20-difluoro-13,18-dioxa-5,7,25-triazatetracyclo[17.3.1.1^2,6.1^8,12]pentacosa-1(23),2(25),3,5,8(24),9,11,19,21-nonaen-10-yl]methyl}(methyl)oxido-λ^6-sulfanylidene]carbamate]
0.041 | 0.003 | 513 | – | CS(=N)(=O)Cc1cc2cc(c1)OCCCCOc1cc(ccc1F)-c1nc(ncc1F)N2 (racemic) [Example 4, (rac)-3,20-difluoro-10-[(S-methylsulfonimidoyl)methyl]-13,18-dioxa-5,7,25-triazatetracyclo[17.3.1.1^2,6.1^8,12]pentacosa-1(23),2(25),3,5,8(24),9,11,19,21-nonaene]
> 0.1 | 0.024 | >833 | – | CC(C)(C)OC(=O)N=S(C)(=O)Cc1cc2cc(c1)OCCCCCOc1cc(ccc1F)-c1nc(ncc1F)N2 (racemic) [Example 5, (rac)-tert-butyl [{[3,21-difluoro-13,19-dioxa-5,7,26-triazatetracyclo[18.3.1.1^2,6.1^8,12]hexacosa-1(24),2(26),3,5,8(25),9,11,20,22-nonaen-10-yl]methyl}(methyl)oxido-λ^6-sulfanylidene]carbamate]
0.039 | 0.005 | 3240 | – | CS(=N)(=O)Cc1cc2cc(c1)OCCCCCOc1cc(ccc1F)-c1nc(ncc1F)N2 (racemic) [Example 6, (rac)-3,21-difluoro-10-[(S-methylsulfonimidoyl)methyl]-13,19-dioxa-5,7,26-triazatetracyclo[18.3.1.1^2,6.1^8,12]hexacosa-1(24),2(26),3,5,8(25),9,11,20,22-nonaene]
0.068 | 0.017 | 385 | – | CS(=N)(=O)Cc1cc2cc(c1)OCCCCOc1c(F)ccc(c1F)-c1nc(ncc1F)N2 (racemic) [Example 8, (rac)-3,20,23-trifluoro-10-[(S-methylsulfonimidoyl)methyl]-13,18-dioxa-5,7,25-triazatetracyclo[17.3.1.1^2,6.1^8,12]pentacosa-1(23),2(25),3,5,8(24),9,11,19,21-nonaene]
0.048 | 0.025 | 190 | – | CS(=N)(=O)Cc1cc2cc(c1)OCCCOc1cc(ccc1F)-c1nc(ncc1F)N2 (racemic) [Example 10, (rac)-3,19-difluoro-10-[(S-methylsulfonimidoyl)methyl]-13,17-dioxa-5,7,24-triazatetracyclo[16.3.1.1^2,6.1^8,12]tetracosa-1(22),2(24),3,5,8(23),9,11,18,20-nonaene]
0.016 | – | 189 | – | CC1CCCOc2cc(ccc2F)-c2cc(ncc2F)Nc2cc(CS(C)(=O)=O)cc(n2)O1 (racemic) [Example 28, 3,20-difluoro-14-methyl-10-[(methylsulfonyl)methyl]-13,18-dioxa-5,7,24-triazatetracyclo[17.3.1.1^2,6.1^8,12]pentacosa-1(23),2(25),3,5,8(24),9,11,19,21-nonaene]
– | – | 72 | 0.006 | CC1CCCOc2cc(ccc2F)-c2cc(ncc2F)Nc2cc(CS(C)(=N)=O)cc(n2)O1 (single isomer, unassigned) [Example 16, 3,20-difluoro-14-methyl-10-[(S-methylsulfonimidoyl)methyl]-13,18-dioxa-5,7,24-triazatetracyclo[17.3.1.1^2,6.1^8,12]pentacosa-1(23),2(25),3,5,8(24),9,11,19,21-nonaene]
– | – | 132 | 0.006 | CC1CCCOc2cc(ccc2F)-c2cc(ncc2F)Nc2cc(CS(C)(=N)=O)cc(n2)O1 (single isomer, unassigned) [Example 17, 3,20-difluoro-14-methyl-10-[(S-methylsulfonimidoyl)methyl]-13,18-dioxa-5,7,24-triazatetracyclo[17.3.1.1^2,6.1^8,12]pentacosa-1(23),2(25),3,5,8(24),9,11,19,21-nonaene]
– | – | 1225 | 0.027 | CC1CCCCOc2cc(ccc2F)-c2cc(ncc2F)Nc2cc(CS(C)(=N)=O)cc(n2)O1 (single isomer, unassigned) [Example 21, 3,21-difluoro-14-methyl-10-[(S-methylsulfonimidoyl)methyl]-13,19-dioxa-5,7,25-triazatetracyclo[18.3.1.1^2,6.1^8,12]hexacosa-1(24),2(26),3,5,8(25),9,11,20,22-nonaene]
– | – | 251 | 0.0007 | CC1CCCCOc2cc(ccc2F)-c2cc(ncc2F)Nc2cc(CS(C)(=N)=O)cc(n2)O1 (single isomer, unassigned) [Example 22, 3,21-difluoro-14-methyl-10-[(S-methylsulfonimidoyl)methyl]-13,19-dioxa-5,7,25-triazatetracyclo[18.3.1.1^2,6.1^8,12]hexacosa-1(24),2(26),3,5,8(25),9,11,20,22-nonaene]
